Experimental findings from publication PMC4831868 (Cell reports, 2012) are described below.

The experiment addresses pHipA (Escherichia coli, UniProt P23874). The experiment is described as follows: ITC. The conditions noted are these: no binding.

Chain of pHipA (P23874 whole entry, looked up): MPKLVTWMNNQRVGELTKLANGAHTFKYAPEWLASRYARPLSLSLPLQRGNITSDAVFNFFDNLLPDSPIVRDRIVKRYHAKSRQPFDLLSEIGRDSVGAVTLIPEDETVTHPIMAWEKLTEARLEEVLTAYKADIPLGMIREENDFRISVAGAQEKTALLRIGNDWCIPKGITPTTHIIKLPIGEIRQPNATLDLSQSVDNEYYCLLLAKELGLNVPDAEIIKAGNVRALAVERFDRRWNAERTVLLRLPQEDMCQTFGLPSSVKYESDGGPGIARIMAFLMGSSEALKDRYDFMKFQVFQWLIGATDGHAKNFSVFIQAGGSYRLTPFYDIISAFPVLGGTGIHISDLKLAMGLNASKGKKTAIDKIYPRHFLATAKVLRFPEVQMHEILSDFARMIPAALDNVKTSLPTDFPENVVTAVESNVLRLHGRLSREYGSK

Regarding `Nc1ncnc2c1ncn2[C@@H]1O[C@H](COP(=O)(O)OP(=O)(O)NP(=O)(O)O)[C@@H](O)[C@H]1O` [AMPPNP], the ITC result is listed as “revealed no interaction between ATP or the nonhydrolyzable ATP analogue, AMPPNP”.
